Results taken from publication PMC3913854 (Investigational New Drugs, 2013).
Entries after “also recorded” stand apart in the source; their conditions may differ.

What was measured:
[1] = tested on: brain metastases from HER2+ breast cancer; conditions: monotherapy; N = 242; cited from earlier work
[2] = across an intact or a tumor-compromised BBB; cited from earlier work
[3] = tested on: mutant EGFR kinase (L858R and L861Q); conditions: preclinical, Nakayama et al., unpublished data, 2012; cited from earlier work
[4] = tested on: EGFR mutant NSCLC cell line HCC4006; conditions: ref data on file; cited from earlier work
malignant cell lines = conditions: preclinical; cited from earlier work
P-glycoprotein (P-gp) = conditions: in vitro transport studies; Nakayama et al., unpublished data, 2012; cited from earlier work
[5] = in vitro; Nakayama et al., unpublished data, 2012; cited from earlier work
[6] = tested on: patients with advanced cancers; conditions: Japanese patients, N = 26, cited from earlier work
[7] = tested on: patients with advanced cancer; test: phase 1 dose-escalation study: safety, MTD, DLTs, adverse events; format: in vivo, human
[8] = phase 1 study: plasma pharmacokinetics; format: in vivo, human
[9] = rats; cited from earlier work
[10] = tested on: breast cancer resistance protein (BCRP); conditions: in vitro transport studies; Nakayama et al., unpublished data, 2012; cited from earlier work
[11] = phase 1 study: CSF distribution and protein binding; format: in vivo, human; conditions: 400 mg BID; for Css,avg,u,CSF (steady-state average unbound CSF concentration): n = 5, calculated by Eq. 1
murine xenograft models = conditions: cited from earlier work
advanced solid tumors = test: phase 1 study: tumor response; format: in vivo, human; conditions: for clinical benefit rate: CR, PR or SD durable for > 6 cycles

CS(=O)(=O)CCNCc1ccc(-c2ccc3ncnc(Nc4ccc(OCc5cccc(F)c5)c(Cl)c4)c3c2)o1 [lapatinib, N-{3-chloro-4-[(3-fluorobenzyl)oxy]phenyl}-6-[5-({[2-(methylsulfonyl)ethyl]amino}methyl)-2-furyl]-4-quinazolinamine]
clinical benefit rate [1]: 43% | objective response rate [1]: 6% | patients with ≥ 50 % reduction in CNS tumor size [1]: 8% | central nervous system (CNS) penetration [2]: negligible

CC(C)(O)CC(=O)NCCn1ccc2ncnc(Nc3ccc(Oc4cccc(C(F)(F)F)c4)c(Cl)c3)c21 [TAK-285]
inhibition of mutant EGFR kinase activity [3]: inhibits mutant EGFR kinase activity | inhibition of cell growth [4]: did not inhibit the growth | growth of malignant cell lines (malignant cell lines): inhibits the growth | substrate for BBB efflux transporter P-gp (P-glycoprotein (P-gp)): not a substrate | transcellular permeability [5]: high | tolerability [6]: generally well tolerated | partial response ([6]; parotid cancer): 1 patient | maximum tolerated dose (MTD) ([6]; twice daily [BID]): 300 mg | dose-limiting toxicities ([7]; all cohorts, as summarised in abstract): diarrhea, hypokalemia, and fatigue | tolerability ([7]; at the MTD/RP2D of 400 mg BID): generally well tolerated | dose-proportionality of steady-state exposures ([8]; 50 mg BID to 500 mg BID): greater than dose-proportional | %CV of steady-state t½ ([8]; 400 mg BID): 11% | increase in geometric mean steady-state AUC0-τ ([8]; 10-fold increase in dose, 50 mg BID to 500 mg BID): 29 fold | extent of accumulation ([8]; MTD of 400 mg BID): approximately 3 fold | pharmacokinetic steady-state achieved ([8]; based on similar trough concentrations on days 8, 15 and 21): ≤ 8 days | time of maximum (peak) plasma concentration ([8]; oral, across cohorts, median): 2 to 3 h | slope of linear regression of log (Css,avg) versus log (Dose) ([8]; power model, 95 % CI, 1.26–1.59): 1.43 | %CV in AUC0-τ ([8]; steady-state, MTD of 400 mg BID): 58% | BBB penetration / brain distribution [9]: crosses the intact BBB; also recorded: penetrates the BBB | substrate for BBB efflux transporter BCRP [10]: not a substrate | Css,avg,u,CSF (steady-state average unbound CSF concentration) ([11]; geometric mean (%CV)): 1.54 ng/mL | Css,avg,u,CSF (steady-state average unbound CSF concentration) ([11]; range of individual values): 0.51 to 4.27 ng/mL | Kp ([11]; human, CSF (unbound) / plasma (unbound), oral, Cu,CSF:Cu,p ratio, 3 to 4 h postdose day 15, n = 7, mean (%CV)): 0.663 | antitumor activity (murine xenograft models): has antitumor activity | clinical benefit rate (advanced solid tumors; RP2D cohort, 1 patient): 13% | stable disease (best response) (advanced solid tumors; RP2D cohort, 4 of 8 patients): 50% | complete or partial response (advanced solid tumors; all cohorts): No patient | clinical benefit rate (advanced solid tumors; dose-escalation cohorts, 3 patients): 9% | stable disease (best response) (advanced solid tumors; dose-escalation cohorts, 9 of 33 patients): 27%
